The source of these data is patent publication US7176217B2, “Azabicyclo compound matrix metalloprotease inhibitor and skin preparation” (Shiseido Co., Ltd., priority 2001, dated 2007).

The target of the test is T1, MMP-9 (crude enzyme solution derived from a mouse skin) (Mus musculus, UniProt P41245).
T1 construct: crude enzyme solution derived from a mouse skin; from tissue; host or cells: mouse skin
T1 sequence (P41245 108-730): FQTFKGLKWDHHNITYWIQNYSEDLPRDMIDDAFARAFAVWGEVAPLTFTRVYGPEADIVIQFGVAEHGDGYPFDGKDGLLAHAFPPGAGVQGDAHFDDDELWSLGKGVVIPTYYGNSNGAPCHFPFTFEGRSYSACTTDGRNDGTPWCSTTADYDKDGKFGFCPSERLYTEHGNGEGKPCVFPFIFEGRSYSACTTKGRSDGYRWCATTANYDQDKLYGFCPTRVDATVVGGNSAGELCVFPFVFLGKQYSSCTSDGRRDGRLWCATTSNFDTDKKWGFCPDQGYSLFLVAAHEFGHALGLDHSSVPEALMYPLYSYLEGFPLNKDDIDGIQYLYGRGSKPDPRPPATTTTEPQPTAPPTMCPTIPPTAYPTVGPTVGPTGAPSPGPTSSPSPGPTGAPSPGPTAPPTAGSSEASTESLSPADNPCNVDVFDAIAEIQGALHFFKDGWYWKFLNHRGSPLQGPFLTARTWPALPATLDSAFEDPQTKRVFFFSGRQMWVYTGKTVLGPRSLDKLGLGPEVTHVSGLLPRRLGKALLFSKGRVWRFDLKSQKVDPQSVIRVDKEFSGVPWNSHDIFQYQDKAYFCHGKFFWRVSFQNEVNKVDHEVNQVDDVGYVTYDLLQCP
In words: Gelatinase group MMPs inhibition test (gelatin zymography). Conditions: sample solution 100 μM; gel incubated overnight; size of MMP-9 band compared with control solution. Details: key: ⊚: The band disappeared.; ◯: The band was slightly confirmed.; Δ: The band became narrower than control.; X: Unchanged. Format: biochemical. How it is done:
A test material was dissolved in dimethyl sulfoxide (DMSO) to the concentration of 10 mM, to prepare a stock solution. The stock solution was diluted with a measuring buffer (0.05M tris at pH 7.5 containing 0.2M NaCl and 5 mM CaCl2) to adjust the concentration to 100 μM, which was used as a sample solution. As a control solution, a solution containing no test material was similarly prepared.
As a gelatinase group enzyme, MMP-9 (crude enzyme solution derived from a mouse skin) was used. The test was performed according to a gelatin zymography method (“Bio-antioxidant provitamin C”, Nobuhiko Miwa ed., p. 76, 1999, Fragrance Journal, Tokyo).
That is, a gel containing gelatin in which a predetermined amount of the crude enzyme solution had been subjected to electrophoresis in advance, was incubated overnight with a sample solution or a control solution. After the gel was stained, the appearing band corresponding to MMP-9 was evaluated by a decrease when its size compared with that of a band of control solution. Evaluation criteria was as follows: • ⊚: The band disappeared. • ◯: The band was slightly confirmed. • Δ: The band became narrower than control. • X: Unchanged.
As to `COc1ccc(S(=O)(=O)N2C3CCC(C3)C2C(=O)NO)cc1` (centres unmarked) [Compound 1, N-Hydroxy-2-[(4-methoxyphenyl)sulfonyl]-2-azabicyclo[2.2.1]heptane-3-carboxamide], the “MMPs Inhibition” value was “◯~⊚”.

For the compound `COc1ccc(S(=O)(=O)N2[C@H]3CC[C@H](C3)[C@@H]2C(=O)NO)cc1` [Compound 3, (1S, 3R, 4R)—N-Hydroxy-2-[(4-methoxyphenyl)sulfonyl]-2-azabicyclo[2.2.1]heptane-3-carboxamide], the “MMPs Inhibition” value is “◯~⊚”.

Take `COc1ccc(S(=O)(=O)N2C3CCC(CC3)[C@@H]2C(=O)NO)cc1` [Compound 7, (3R)—N-Hydroxy-2-[(4-methoxyphenyl)sulfonyl]-2-azabicyclo[2.2.2]octane-3-carboxamide]: the “MMPs Inhibition” value is recorded as “◯~⊚”.

With `O=C(NO)[C@H]1[C@@H]2CC[C@@H](C2)N1S(=O)(=O)c1ccccc1` [Compound 8, (1S, 3R, 4R)—N-Hydroxy-2-(phenylsulfonyl)-2-azabicyclo[2.2.1]heptane-3-carboxamide], the “MMPs Inhibition” value is on record as “◯”.

As for `O=C(NO)[C@H]1[C@@H]2CC[C@@H](C2)N1S(=O)(=O)c1ccc(Cl)cc1` [Compound 9, (1S, 3R, 4R)-2-[(4-Chlorophenyl)sulfonyl]-N-hydroxy-2-azabicyclo[2.2.1]heptane-3-carboxamide], the “MMPs Inhibition” value is listed as “◯”.

Consider `CCCCOc1ccc(S(=O)(=O)N2[C@H]3CCC(C3)[C@@H]2C(=O)NO)cc1` [Compound 12, (1S, 3R, 4R)-2-[4-(Butoxyphenyl)sulfonyl]-N-hydroxy-2-azabicyclo[2.2.1]heptane-3-carboxamide], for which the “MMPs Inhibition” value is “⊚”.

In the case of `O=C(NO)[C@H]1[C@@H]2CC[C@@H](C2)N1S(=O)(=O)c1ccc(F)cc1` [Compound 13, (1S, 3R, 4R)-2-[(4-Fluorophenyl)sulfonyl]-N-hydroxy-2-azabicyclo[2.2.1]heptane-3-carboxamide], the “MMPs Inhibition” value is given as “◯”.

With `COc1ccc(S(=O)(=O)N2[C@@H]3CC(C(C)(C)C)[C@H](C3)[C@@H]2C(=O)NO)cc1` (stereo partly drawn) [Compound 14, 5-(tert-Butyl)-(1R, 3R, 4S)—N-hydroxy-2-[(4-methoxyphenyl)sulfonyl]-2-azabicyclo[2.2.1]heptane-3-carboxamide], the “MMPs Inhibition” value was “◯”.
